{"source": "patent US20210401931A1", "about": "“METHODS AND MATERIALS FOR TREATING CANCER” (Mayo Foundation for Medical Education and Research, priority 2018, published 2021)", "key": {"p65-N": {"biological_target": "T1, p65-N (Homo sapiens, UniProt Q04206)", "T1 construct": "made in house", "T1 sequence (Q04206 19-306 limits assumed)": "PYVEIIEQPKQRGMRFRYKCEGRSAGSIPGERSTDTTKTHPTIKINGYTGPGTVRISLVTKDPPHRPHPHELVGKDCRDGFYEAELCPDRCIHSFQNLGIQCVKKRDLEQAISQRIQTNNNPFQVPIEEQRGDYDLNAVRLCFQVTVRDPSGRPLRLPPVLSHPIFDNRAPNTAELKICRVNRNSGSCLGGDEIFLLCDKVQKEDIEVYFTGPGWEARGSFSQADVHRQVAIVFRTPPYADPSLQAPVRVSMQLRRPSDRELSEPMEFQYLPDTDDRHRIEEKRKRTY", "assay": "In vitro protein binding assay of RL peptide with GST-p65-N", "conditions": "compared to phosphorylation-resistant mutant"}, "PD-L1": {"test_system": "PD-L1", "assay": "PD-L1 expression (western blot, RT-qPCR) in PC-3 cells expressing RL peptide", "type": "cell-based, human", "conditions": "for gamma irradiation-induced upregulation of PD-L1: 12 Gy", "protocol": "FIGS. 5A-K. The importance of S249/T252 phosphorylation of RB in regulation of PD-L1 expression. (A, B) PC-3 cells were infected with lentivirus expressing control shRNA, RB1-specific, p65-specific, or both shRNA. 48 hours post puromycin selection, cells were harvested for western blotting (A) and RT-qPCR analysis (B). All data were shown as mean values±SD (n=3). * P<0.05, ** P<0.01, *** P<0.001. (C, D) DU145 cells were transfected with indicated plasmids. 24 hours after transfection, cells were harvested for western blotting analysis (C) and RT-qPCR analysis (D). All data were shown as mean values±SD (n=3). * P<0.05, ** P<0.01, *** P<0.001. (E, F) DU145 cells were transfected with indicated plasmids. 24 hours after transfection, cells were harvested for western blotting analysis (E) and RT-qPCR analysis (F). All data were shown as mean values±SD (n=3). * P<0.05, ** P<0.01, *** P<0.001. (G, H) PC-3 cells were infected with lentivirus expressing control shRNA or p65-specific shRNAs. After 24 hours, cells were further transfected with empty vector or SFB-RL-S249D/T252D for another 24 hours followed by western blot analysis (G) and RT-qPCR analysis (H). All data were shown as mean values±SD (n=3). * P<0.05, ** P<0.01, *** P<0.001. (I) Representative images of IHC of anti-PD-L1 and anti-pRB-S249/T252 antibodies of TMA (n=145 TMA elements) tissue sections. Scale bars were shown as indicated. (J) Heatmap showing IHC score of PD-L1 and pRB-S249/T252 in TMA. (K) Correlation analysis of IHC score for expression of PD-L1 and pRB-S249/T252 polypeptides in prostate cancer patient specimens (n=145 TMA elements). Pearson's product-moment correlation co-efficiency and the P values were also shown.\nFIGS. 6A-J. The small S249/T252 phosphorylation-mimicking polypeptide of RB blocks irradiation-induced PD-L1 expression and inhibits cancer immune evasion. (A, B) PC-3 cells were infected with lentivirus expressing control shRNA or p65-specific or shRNA. 24 hours after puromycin selection, cells were treated with or without gamma irradiation (IR) (12 Gy). 48 hours after IR treatment, cells were harvested for western blotting analysis (A) and RT-qPCR analysis (B). All data were shown as mean values±SD (n=3). * P<0.05, ** P<0.01, *** P<0.001. (C, D) PC-3 cells were treated with without gamma irradiation (12 Gy). Cells were harvested at the indicated time point for western blotting analysis (C) and RT-qPCR analysis (D). All data were shown as mean values±SD (n=3). * P<0.05, ** P<0.01, *** P<0.001. (E) Western blot analysis of WCL and co-IP samples in PC-3 cells 48 hours after treated with or without gamma irradiation (12 Gy). (F) ChIP-qPCR analysis of p65 binds at the PD-L1 promotor in PC-3 cells 48 hours after treated with or without gamma irradiation (12 Gy). All data were shown as mean values±SD (n=3). * P<0.05, ** P<0.01, *** P<0.001. (G, H) PC-3 cells were treated with or without gamma irradiation (12 Gy). 24 hours post treatment, cells were transfected with indicated constructs. 24 hours after transfection, cells were harvested for western blotting analysis (G) and RT-qPCR analysis (H). All data were shown as mean values±SD (n=3). * P<0.05, ** P<0.01, *** P<0.001. (I) PTEN-CaP8 mouse prostate cancer cells were transduced with lentivirus for control vector or the small RB S249/T252-phosphorylation-mimicking polypeptide RL-S249D/T252D. 72 hours after purimycin selection, 5×10^6 control or RL-S249D/T252D-expressing cells were injected subcutaneously into C57BL/6 mice. Mice (n=8/group) were treated with gamma irradiation (12 Gy) or mock treated, and with anti-PD-L1 (200 μg) or non-specific IgG for 45 days. (J) The absolute number of CD45^+CD8^+ T cells, CD45^+CD4^+ T cells, and CD11b^+Gr1^+ myeloid cells of implanted PTEN-CaP8 in tumors treated with indicated agents was analyzed by FACS. All data were shown as mean values±SD (n=8). ns, not significant, *** P<0.001.\nTotal RNA was isolated using TRIzol reagent (Thermo Fisher Scientific). […]"}, "PTEN-CaP8 cells": {"test_system": "PTEN-CaP8 cells", "assay": "Pd-l1 and NFκB target gene expression in PTEN-CaP8 cells expressing RL peptide", "type": "cell-based, mouse", "protocol": "FIGS. 13A-F. (A, B) PC-3 cells were treated with or without gamma irradiation (IR) (12 Gy). 24 hours post treatment, cells were treated with or without Helenalin (2 μM). 24 hours after treatment, cells were harvested for western blotting analysis (A) and RT-qPCR analysis (B). All data were shown as mean values±SD (n=3). “ns”=not significant, *** P<0.001. (C) PTEN-CaP8 cells were infected with lentivirus expression Tsin control or Tsin-RL S249D/T252D peptide. 72 hours post infection, cell were harvested for western blotting analysis. (D, E) PTEN-CaP8 cells were infected with lentivirus expression Tsin control or Tsin-RL S249D/T252D peptide. 72 hours post infection, cells were treated with or without gamma irradiation (12 Gy) for 48 hours. Cells were harvested for MTS assay (D) and RT-qPCR (E). All data were shown as mean values±SD (n=3). “ns”=not significant, ** P<0.01; *** P<0.001. (F) Schematic diagram depicting the treatment plan for mice bearing subcutaneous PTEN-CaP8 tumors.\nTotal RNA was isolated using TRIzol reagent (Thermo Fisher Scientific). The NanoDrop 2000 spectrophotometer (Thermo Fisher Scientific) was used to assess RNA yield and quality. […] Quantitative real-time PCR was performed by mixing cDNA, gene-specific primers, and IQ SYRB Green Supermix and detected by iCycler QTX detection system (Bio-Rad). The 2-ΔCt method was used to quantitate fold changes by normalizing to GAPDH. […]"}}, "note": "Ends that are not written are not given here."}
{"substance": "RL-S249D/T252D: S249/T252 phospho-mimicking R-Linker (RL) peptide: fragment of RB-N containing 21 amino acids surrounding S249/T252, expressed SFB-tagged or by lentivirus (NGDPRDPRRGQNRSARIAKQL; also: expressed SFB-tagged (tag left off))", "values": [{"measurement": "binding of in vitro transcribed and translated RL peptide to p65-N", "setting": "p65-N", "value": "much stronger"}, {"measurement": "PD-L1 expression in p65-proficient cells", "setting": "PD-L1; PC-3 cells transfected with SFB-tagged peptide, 24 hours", "value": "largely inhibited"}, {"measurement": "PD-L1 expression (FIG. 6G)", "setting": "PD-L1; PC-3 cells transfected with peptide construct", "value": "almost completely blocked"}, {"measurement": "PD-L1 expression in p65-depleted cells", "setting": "PD-L1; PC-3 cells with p65 shRNA, transfected with SFB-tagged peptide, listed as RL-S249/T252D peptide", "value": "little or no effect"}, {"measurement": "gamma irradiation-induced upregulation of PD-L1", "setting": "PD-L1; PC-3 cells, ectopic expression of peptide", "value": "largely, but not completely blocked"}, {"measurement": "gamma irradiation-induced upregulation of PD-L1", "setting": "PD-L1; PC-3 cells, ectopic expression of peptide, listed as RL-S249/T252D", "value": "largely diminished"}, {"measurement": "PD-L1 basal level", "setting": "PD-L1; PC-3 cells, ectopic expression of peptide, no irradiation", "value": "decreased"}, {"measurement": "expression of anti-apoptotic / pro-survival NFκB target genes", "setting": "PTEN-CaP8 cells; PTEN-CaP8 cells, lentiviral peptide expression", "value": "blocked"}, {"measurement": "Pd-l1 expression in PTEN-CaP8 cells", "setting": "PTEN-CaP8 cells; lentiviral Tsin-RL S249D/T252D, 72 hours", "value": "completely blocked"}]}
